{
  "source": "patent US20030176475A1",
  "about": "“Therapeutically useful new salts of cck inhibitors, process for the preparation thereof and pharmaceutical preparations containing them” (priority 2000, published 2003)",
  "key": {"[1]": {"assay": "Hygroscopicity and chemical stability of the salts", "format": "physicochemical", "source_text": "The mono- and di-sodium salts, as well as the mono- and di-potassium salts and their hydrates are highly hygroscopic and chemically not stable compounds namely the compound of the formula (II) decomposes at the amide bond giving rise to decomposition products of formulae (IV) (FIG. 6) and (V) (FIG. 7)."}, "[2]": {"target": "T1, cholecystokinin A (CCK-A) (Rattus norvegicus, UniProt P30551)", "T1 construct": "from tissue; host or cells: living rat (in vivo, oral dosing; gastric emptying)", "T1 sequence (P30551 1-444)": "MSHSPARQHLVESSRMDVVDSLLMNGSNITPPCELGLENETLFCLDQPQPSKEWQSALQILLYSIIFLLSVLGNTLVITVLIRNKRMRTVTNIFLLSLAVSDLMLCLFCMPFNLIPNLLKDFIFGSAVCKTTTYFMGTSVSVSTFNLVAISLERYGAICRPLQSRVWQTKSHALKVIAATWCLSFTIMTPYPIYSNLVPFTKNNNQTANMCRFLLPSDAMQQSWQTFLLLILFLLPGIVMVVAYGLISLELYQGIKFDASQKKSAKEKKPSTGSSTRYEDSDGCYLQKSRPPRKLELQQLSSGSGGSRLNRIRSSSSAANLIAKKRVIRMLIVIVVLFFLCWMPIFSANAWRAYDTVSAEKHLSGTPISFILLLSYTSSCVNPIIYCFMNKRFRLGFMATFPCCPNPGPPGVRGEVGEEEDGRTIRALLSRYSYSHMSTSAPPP", "conditions": "comparison in words; cited from earlier work"}},
  "data": [
    {"smiles": "CCNCC.COc1cc(-c2nc(NC(=O)c3cc4cc(C)cc(C)c4n3CC(=O)O)sc2CCC2CCCCC2)c(OC)cc1Cl", "values": [
      {"measurement": "melting point", "value": "209.4 to 210.7", "unit": "°C"}
    ]},
    {"smiles": "COc1cc(-c2nc(NC(=O)c3cc4cc(C)cc(C)c4n3CC(=O)O)sc2CCC2CCCCC2)c(OC)cc1Cl.NCCO.O", "note": "(hydrate or solvate)", "values": [
      {"measurement": "melting point", "value": "166 to 167", "unit": "°C"}
    ]},
    {"smiles": "COc1cc(-c2nc(NC(=O)c3cc4cc(C)cc(C)c4n3CC(=O)O)sc2CCC2CCCCC2)c(OC)cc1Cl.NCCO", "note": "[ethanolamine salt, 2-[[[4-(4-chloro-2,5-dimethoxyphenyl)-5-(2-cyclohexylethyl)-2-thiazolyl]amino]carbonyl]-5,7-dimethyl-1H-indol-1-acetic Acid Ethanolamine Salt]", "values": [
      {"measurement": "melting point", "value": "208 to 210", "unit": "°C"},
      {"measurement": "hygroscopicity", "setting": "[1]", "value": "non-hygroscopic"},
      {"measurement": "chemical stability", "setting": "[1]; decomposition at the amide bond to products of formulae (IV) and (V)", "value": "chemically stable"}
    ]},
    {"smiles": "Nc1cc(Cl)nc(C(=O)[O-])c1Cl.[K+]", "note": "[potassium salt]", "values": [
      {"measurement": "ED50 of prior salts compared with the 34 μg/kg p.o. of the compound of the invention", "setting": "[2]", "value": "in the same order"}
    ]}
  ]
}
